According to the NIST ThermoML archive (doi:10.1021/je900482x):
Numbers after ± are expanded uncertainties.

Test: isobaric coefficient of expansion
Details: Liquid, Microcalorimeter

CCCCCCn1cc[n+](C)c1.F[B-](F)(F)F [1-hexyl-3-methylimidazolium tetrafluoroborate]
isobaric coefficient of expansion (278.15 K, 5000 kPa): 0.000621 ± 1.5e-05 1/K | isobaric coefficient of expansion (278.15 K, 10000 kPa): 0.000613 ± 1.5e-05 1/K | isobaric coefficient of expansion (278.15 K, 15000 kPa): 0.000605 ± 1.5e-05 1/K | isobaric coefficient of expansion (278.15 K, 20000 kPa): 0.000598 ± 1.5e-05 1/K | isobaric coefficient of expansion (278.15 K, 25000 kPa): 0.00059 ± 1.4e-05 1/K | isobaric coefficient of expansion (278.15 K, 30000 kPa): 0.000584 ± 1.4e-05 1/K | isobaric coefficient of expansion (278.15 K, 35000 kPa): 0.000576 ± 1.4e-05 1/K | isobaric coefficient of expansion (278.15 K, 40000 kPa): 0.000572 ± 1.4e-05 1/K | isobaric coefficient of expansion (278.15 K, 45000 kPa): 0.000562 ± 1.4e-05 1/K | isobaric coefficient of expansion (278.15 K, 50000 kPa): 0.000558 ± 1.4e-05 1/K | isobaric coefficient of expansion (288.15 K, 5000 kPa): 0.000616 ± 1.5e-05 1/K | isobaric coefficient of expansion (288.15 K, 10000 kPa): 0.000606 ± 1.5e-05 1/K | isobaric coefficient of expansion (288.15 K, 15000 kPa): 0.0006 ± 1.5e-05 1/K | isobaric coefficient of expansion (288.15 K, 20000 kPa): 0.000593 ± 1.5e-05 1/K | isobaric coefficient of expansion (288.15 K, 25000 kPa): 0.000586 ± 1.4e-05 1/K | isobaric coefficient of expansion (288.15 K, 30000 kPa): 0.000579 ± 1.4e-05 1/K | isobaric coefficient of expansion (288.15 K, 35000 kPa): 0.000572 ± 1.4e-05 1/K | isobaric coefficient of expansion (288.15 K, 40000 kPa): 0.000565 ± 1.4e-05 1/K | isobaric coefficient of expansion (288.15 K, 45000 kPa): 0.000558 ± 1.4e-05 1/K | isobaric coefficient of expansion (288.15 K, 50000 kPa): 0.000555 ± 1.4e-05 1/K | isobaric coefficient of expansion (298.15 K, 5000 kPa): 0.00061 ± 1.5e-05 1/K | isobaric coefficient of expansion (298.15 K, 10000 kPa): 0.000603 ± 1.5e-05 1/K | isobaric coefficient of expansion (298.15 K, 15000 kPa): 0.000595 ± 1.5e-05 1/K | isobaric coefficient of expansion (298.15 K, 20000 kPa): 0.000586 ± 1.4e-05 1/K | isobaric coefficient of expansion (298.15 K, 25000 kPa): 0.00058 ± 1.4e-05 1/K | isobaric coefficient of expansion (298.15 K, 30000 kPa): 0.000573 ± 1.4e-05 1/K | isobaric coefficient of expansion (298.15 K, 35000 kPa): 0.000564 ± 1.4e-05 1/K | isobaric coefficient of expansion (298.15 K, 40000 kPa): 0.000558 ± 1.4e-05 1/K | isobaric coefficient of expansion (298.15 K, 45000 kPa): 0.000552 ± 1.4e-05 1/K | isobaric coefficient of expansion (298.15 K, 50000 kPa): 0.000547 ± 1.3e-05 1/K | isobaric coefficient of expansion (308.15 K, 5000 kPa): 0.000605 ± 1.5e-05 1/K | isobaric coefficient of expansion (308.15 K, 10000 kPa): 0.000596 ± 1.5e-05 1/K | isobaric coefficient of expansion (308.15 K, 15000 kPa): 0.000589 ± 1.4e-05 1/K | isobaric coefficient of expansion (308.15 K, 20000 kPa): 0.000579 ± 1.4e-05 1/K | isobaric coefficient of expansion (308.15 K, 25000 kPa): 0.000572 ± 1.4e-05 1/K | isobaric coefficient of expansion (308.15 K, 30000 kPa): 0.000565 ± 1.4e-05 1/K | isobaric coefficient of expansion (308.15 K, 35000 kPa): 0.00056 ± 1.4e-05 1/K | isobaric coefficient of expansion (308.15 K, 40000 kPa): 0.000553 ± 1.4e-05 1/K | isobaric coefficient of expansion (308.15 K, 45000 kPa): 0.000545 ± 1.3e-05 1/K | isobaric coefficient of expansion (308.15 K, 50000 kPa): 0.000541 ± 1.3e-05 1/K | isobaric coefficient of expansion (318.15 K, 5000 kPa): 0.000599 ± 1.5e-05 1/K | isobaric coefficient of expansion (318.15 K, 10000 kPa): 0.000594 ± 1.5e-05 1/K | isobaric coefficient of expansion (318.15 K, 15000 kPa): 0.000585 ± 1.4e-05 1/K | isobaric coefficient of expansion (318.15 K, 20000 kPa): 0.000573 ± 1.4e-05 1/K | isobaric coefficient of expansion (318.15 K, 25000 kPa): 0.000566 ± 1.4e-05 1/K | isobaric coefficient of expansion (318.15 K, 30000 kPa): 0.00056 ± 1.4e-05 1/K | isobaric coefficient of expansion (318.15 K, 35000 kPa): 0.000554 ± 1.4e-05 1/K | isobaric coefficient of expansion (318.15 K, 40000 kPa): 0.000545 ± 1.3e-05 1/K | isobaric coefficient of expansion (318.15 K, 45000 kPa): 0.000537 ± 1.3e-05 1/K | isobaric coefficient of expansion (318.15 K, 50000 kPa): 0.000532 ± 1.3e-05 1/K | isobaric coefficient of expansion (328.15 K, 5000 kPa): 0.000594 ± 1.5e-05 1/K | isobaric coefficient of expansion (328.15 K, 10000 kPa): 0.000587 ± 1.4e-05 1/K | isobaric coefficient of expansion (328.15 K, 15000 kPa): 0.00058 ± 1.4e-05 1/K | isobaric coefficient of expansion (328.15 K, 20000 kPa): 0.000572 ± 1.4e-05 1/K | isobaric coefficient of expansion (328.15 K, 25000 kPa): 0.000562 ± 1.4e-05 1/K | isobaric coefficient of expansion (328.15 K, 30000 kPa): 0.000555 ± 1.4e-05 1/K | isobaric coefficient of expansion (328.15 K, 35000 kPa): 0.000549 ± 1.3e-05 1/K | isobaric coefficient of expansion (328.15 K, 40000 kPa): 0.00054 ± 1.3e-05 1/K | isobaric coefficient of expansion (328.15 K, 45000 kPa): 0.000536 ± 1.3e-05 1/K | isobaric coefficient of expansion (328.15 K, 50000 kPa): 0.000531 ± 1.3e-05 1/K | isobaric coefficient of expansion (338.15 K, 5000 kPa): 0.000591 ± 1.4e-05 1/K | isobaric coefficient of expansion (338.15 K, 10000 kPa): 0.000584 ± 1.4e-05 1/K | isobaric coefficient of expansion (338.15 K, 15000 kPa): 0.000575 ± 1.4e-05 1/K | isobaric coefficient of expansion (338.15 K, 20000 kPa): 0.000567 ± 1.4e-05 1/K | isobaric coefficient of expansion (338.15 K, 25000 kPa): 0.000558 ± 1.4e-05 1/K | isobaric coefficient of expansion (338.15 K, 30000 kPa): 0.000553 ± 1.4e-05 1/K | isobaric coefficient of expansion (338.15 K, 35000 kPa): 0.000544 ± 1.3e-05 1/K | isobaric coefficient of expansion (338.15 K, 40000 kPa): 0.000538 ± 1.3e-05 1/K | isobaric coefficient of expansion (338.15 K, 45000 kPa): 0.000532 ± 1.3e-05 1/K | isobaric coefficient of expansion (338.15 K, 50000 kPa): 0.000528 ± 1.3e-05 1/K | isobaric coefficient of expansion (348.15 K, 5000 kPa): 0.000588 ± 1.4e-05 1/K | isobaric coefficient of expansion (348.15 K, 10000 kPa): 0.000582 ± 1.4e-05 1/K | isobaric coefficient of expansion (348.15 K, 15000 kPa): 0.000572 ± 1.4e-05 1/K | isobaric coefficient of expansion (348.15 K, 20000 kPa): 0.000563 ± 1.4e-05 1/K | isobaric coefficient of expansion (348.15 K, 25000 kPa): 0.000555 ± 1.4e-05 1/K | isobaric coefficient of expansion (348.15 K, 30000 kPa): 0.000548 ± 1.3e-05 1/K | isobaric coefficient of expansion (348.15 K, 35000 kPa): 0.000543 ± 1.3e-05 1/K | isobaric coefficient of expansion (348.15 K, 40000 kPa): 0.000535 ± 1.3e-05 1/K | isobaric coefficient of expansion (348.15 K, 45000 kPa): 0.000529 ± 1.3e-05 1/K | isobaric coefficient of expansion (348.15 K, 50000 kPa): 0.000522 ± 1.3e-05 1/K
